Laboratory results published in patent US10150772B2, “Crystalline forms of PARP inhibitors” (priority 2014, dated 2018).
“Also recorded” adds a separate entry of the source. Structures can show the parent of a compound that is named as a salt. Where two headings read alike, the source gives them in different places.

Assays:
[1] = Dynamic vapor sorption (DVS), water sorption; type: physicochemical; conditions: for Total uptake (moisture): entire RH range
Procedure: Dynamic Vapor Sorption (DVS):
DVS experiments have been carried out using the DVS-HT instrument (Surface Measurement Systems, London, UK). This instrument measures the uptake and loss of vapor gravimetrically using a recording ultra-microbalance with a mass resolution of ±0.1 μg. The vapor partial pressure (±1.0%) around the sample is controlled by mixing saturated and dry carrier gas streams using electronic mass flow controllers. The desired temperature is maintained at ±0.1° C. The samples (1-10 mg) were placed into the DVS-HT and DVS-1 instruments at the desired temperature.
The sample was loaded and unloaded at 40% RH and 25° C. (typical room conditions). A moisture sorption isotherm was performed as outlined below (2 scans giving 1 complete cycle). The software uses a least squares minimization procedure together with a model of the mass relaxation, to predict an asymptotic value. The measured mass equilibration value must be within 2% of that predicted by the software before proceeding to the next % RH value. The minimum equilibration time was set to 1 hour and the maximum to 4 hours.

[2] = type: physicochemical; conditions: for Stability to the test conditions (in words): 28 day test period
Procedure: Identity, Assay, and Purity by HPLC
Testing was performed on a calibrated and validated Agilent 1200 Rapid Resolution High Performance Liquid Chromatography (HPLC) system designated LC-0430-AD or LC-418-1D. The system comprises a binary SL pump, degasser, high performance autosampler SL with a fraction collector, thermostated column compartment with a 2 valve column switcher, and a DAD SL detector. All standard solutions and samples were prepared in Class A glass volumetric flasks and were placed in autosampler vials. Standard weighings were done using a calibrated Mettler analytical balance. The sample preparations were centrifuged using an Eppendorf microcentrifuge. The primary chromatography data was acquired and integrated using Empower 2 software. Microsoft Office Excel 2003 was used for the calculation of results.
Solid State Stability of Salts at 40° C. and 75% Humidity:
Samples of the form to be studied (15-20 mg) were weighed into standard 1.5 mL HPLC vials (32×11.6 mm) and stored uncapped for 0, 7, 14 and 28 days in a 40° C. and 75% RH stability chamber. Samples were removed on the indicated day and capped. Measurements of XRPD, DSC, TGA and HPLC Identity by Purity and Assay measurements were completed on each time point sample.

[3] = Estimation of water solubility; type: physicochemical; conditions: for Estimated Water Solubility: visual inspection, 10 mg sample
Procedure: Estimation of Water Solubility: Ten mg portions of the salt forms to be studied were weighed into a standard 1.5 mL HPLC vial (32×11.6 mm). […] An estimation of solubility was based on the volume of water necessary to dissolve the known weight of sample.

[4] = 40° C. and 75% RH, day 14, HPLC
[5] = 40° C. and 75% RH, day 28, HPLC
[6] = initial, before 40° C. and 75% RH stability testing

## COc1cccc2[nH]c3c4c(c5c(c3c12)C(=O)N(CN1CCN(C)CC1)C5=O)CCC4 [Acetate Salt, Form A1.5]
[1]; DVS, 25° C.
  DVS sorption behaviour (in words): steady weight loss during the drying curves with no equilibration reached
[2]; 40° C. and 75% RH
  Stability to the test conditions (in words): changes throughout the 28 day test period
[2]; 40° C. and 75% RH, day 0
  HPLC Purity: 99.7%
  TGA: 21.5%
[2]; 40° C. and 75% RH, day 0, HPLC
  COMPOUND A Assay: 78.1%
  COMPOUND B Assay: 0.2%
[2]; 40° C. and 75% RH, day 7
  HPLC Purity: 99.6%
  TGA: 20.0%
  XRPD: Shows hydrate
[2]; 40° C. and 75% RH, day 7, HPLC
  COMPOUND A Assay: 70.2%
  COMPOUND B Assay: 0.1%
[2]; 40° C. and 75% RH, day 14
  HPLC Purity: 99.5%
  TGA: 16.1%
  XRPD: Shows hydrate
[2]; [4]
  COMPOUND A Assay: 84.2%
  COMPOUND B Assay: 0.2%
[2]; 40° C. and 75% RH, day 28
  HPLC Purity: 99.6%
  TGA: 9.6%
  XRPD: Shows hydrate,
[2]; [5]
  COMPOUND A Assay: 90.9%
  COMPOUND B Assay: 0.3%

## COc1cccc2[nH]c3c4c(c5c(c3c12)C(=O)N(CN1CCN(C)CC1)C5=O)CCC4 [Glycolate Salt Hydrate, Form A1]
[1]; DVS, 25° C.
  DVS sorption behaviour (in words): surface adsorption with limited bulk absorption throughout the entire RH range
[1]; DVS, 25° C., 90% RH
  Total uptake in moisture at 90% RH: ~3.5%
[2]; 40° C. and 75% RH
  Stability to the test conditions (in words): fairly stable to the test conditions; also recorded: generated the least amount of Compound B
[2]; 40° C. and 75% RH, day 0
  HPLC Purity: 99.8%
  TGA: 2.1%
[2]; 40° C. and 75% RH, day 0, HPLC
  COMPOUND A Assay: 69.9%
  COMPOUND B Assay: 0.1%
[2]; 40° C. and 75% RH, day 7
  HPLC Purity: 99.6%
  TGA: 2.3%
  XRPD: No change
[2]; 40° C. and 75% RH, day 7, HPLC
  COMPOUND A Assay: 68.4%
  COMPOUND B Assay: 0.1%
[2]; 40° C. and 75% RH, day 14
  HPLC Purity: 99.7%
  TGA: 2.6%
  XRPD: No change
[2]; [4]
  COMPOUND A Assay: 73.2%
  COMPOUND B Assay: 0.2%
[2]; 40° C. and 75% RH, day 28
  HPLC Purity: 99.5%
  TGA: 3.5%
  XRPD: No change
[2]; [5]
  COMPOUND A Assay: 66.8%
  COMPOUND B Assay: 0.6%

## COc1cccc2[nH]c3c4c(c5c(c3c12)C(=O)N(CN1CCN(C)CC1)C5=O)CCC4 [Hydrochloride Salt, Form A]
[1]; DVS, 25° C.
  DVS sorption behaviour (in words): surface adsorption with limited bulk absorption throughout the entire RH range
  Total uptake (moisture): ~2.25%
[2]; 40° C. and 75% RH
  Stability to the test conditions (in words): relatively constant XRPD pattern
[2]; 40° C. and 75% RH, after 28 days
  Compound A Assay value, change (in words): decreasing to nearly half

## COc1cccc2[nH]c3c4c(c5c(c3c12)C(=O)N(CN1CCN(C)CC1)C5=O)CCC4 [L-Malate Salt, Form A1]
[1]; DVS, 25° C.
  DVS sorption behaviour (in words): very little water absorption during the first cycle from 40% RH to 70% RH
  Total uptake (moisture): ~2%
[2]; 40° C. and 75% RH
  Stability to the test conditions (in words): stable to the test conditions
[2]; 40° C. and 75% RH, day 0
  HPLC Purity: 99.5%
  TGA: 0.1%
[2]; 40° C. and 75% RH, day 0, HPLC
  COMPOUND A Assay: 69.9%
  COMPOUND B Assay: 0.2%
[2]; 40° C. and 75% RH, day 7
  HPLC Purity: 99.3%
  TGA: 0.2%
  XRPD: No change
[2]; 40° C. and 75% RH, day 7, HPLC
  COMPOUND A Assay: 71.8%
  COMPOUND B Assay: 0.4%
[2]; 40° C. and 75% RH, day 14
  HPLC Purity: 98.8%
  TGA: 0.8%
  XRPD: No change
[2]; [4]
  COMPOUND A Assay: 72.0%
  COMPOUND B Assay: 0.5%
[2]; 40° C. and 75% RH, day 28
  HPLC Purity: 98.4%
  TGA: 0.3%
  XRPD: No change
[2]; [5]
  COMPOUND A Assay: 71.7%
  COMPOUND B Assay: 0.8%

## COc1cccc2[nH]c3c4c(c5c(c3c12)C(=O)N(CN1CCN(C)CC1)C5=O)CCC4 [L-Pyroglutamate Salt, Form A1]
[1]; DVS, 25° C.
  DVS sorption behaviour (in words): massive uptake in moisture
  Total uptake (moisture): ~27%
[1]; DVS, RH range of 40-75%
  Water absorption, first cycle: ~2%
[2]; 40° C. and 75% RH
  Stability to the test conditions (in words): stable over a 28 day test period, except for a slow increase in Compound B content

## COc1cccc2[nH]c3c4c(c5c(c3c12)C(=O)N(CN1CCN(C)CC1)C5=O)CCC4.O=C(O)C[C@H](O)C(=O)O [L-malate (2 Eq.)]
[3]
  Est. Water Solubility: >100 mg/mL
[1]; water sorption reversible or irreversible
  DVS: Irreversible
[2]; after 40° C. and 75% RH stability testing
  COMPOUND B After 40/75: 1.2%
[2]; [6]
  COMPOUND A Initial: 71.3%
  COMPOUND B Initial: 0.2%
[2]; initial, comparison of salts
  TGA: 0.1%

## COc1cccc2[nH]c3c4c(c5c(c3c12)C(=O)N(CN1CCN(C)CC1)C5=O)CCC4 [Sample 39-1]
[3]
  Estimated Water Solubility: ~50 mg/mL

## COc1cccc2[nH]c3c4c(c5c(c3c12)C(=O)N(CN1CCN(C)CC1)C5=O)CCC4 [Sample 39-2]
[3]
  Estimated Water Solubility: <10 mg/mL

## COc1cccc2[nH]c3c4c(c5c(c3c12)C(=O)N(CN1CCN(C)CC1)C5=O)CCC4 [Sample 39-3]
[3]
  Estimated Water Solubility: >100 mg/mL

## COc1cccc2[nH]c3c4c(c5c(c3c12)C(=O)N(CN1CCN(C)CC1)C5=O)CCC4 [Sample 39-4]
[3]
  Estimated Water Solubility: >100 mg/mL

## COc1cccc2[nH]c3c4c(c5c(c3c12)C(=O)N(CN1CCN(C)CC1)C5=O)CCC4 [Sample 39-5]
[3]
  Estimated Water Solubility: >100 mg/mL
